Values of other authors as cited in patent US20040248932A1, “Use of aryl- and heteroaryl-substituted tetrahydroisoquinolines in the treatment of chronic and neuropathic pain, migraine headaches, and urge, stress and mixed urinary incontinence” (priority 2002, published 2004).

Details: nocturnal enuresis, following treatment

In the case of `CN(C)CCCN1c2ccccc2CCc2ccccc21` [imipramine, Imipramine], the “further patients in whom improvements can be seen” value is given as 15-20% and the “patients in whom enuresis can be cured” value is given as “over 50%”.
